Structures can show the parent of a compound that is named as a salt.
Columns and labels:
[1] = target: T1, catalytic domain (JH1, amino acids 808-1132) of human JAK2 (Homo sapiens, UniProt O60674); experiment: JAK2 HTRF Enzyme Activity Assay; type: biochemical; conditions: ATP 30 μM, read-out: ENZ 30UMATP
T1 construct: catalytic domain (JH1, amino acids 808-1132) of human JAK2; His (N); purchased BPS Bioscience 40450; host or cells: baculovirus expression system
Method: Example D. JAK2 HTRF Enzyme Activity Assay
JAK2 enzyme activity assays utilize catalytic domain (JH1, amino acids 808-1132) of human JAK2 expressed as N-terminal His-tagged protein in a baculovirus expression system (BPS Bioscience, Catalog #40450). The assays was conducted in black 384-well polystyrene plates in a final reaction volume of 20 μL. JAK2 (0.015 nM) was incubated with compounds (100 nL serially diluted in DMSO) in the presence of ATP (30 μM or 1 mM) and 500 nM Biotin-labeled […] (SEQ ID NO.: 1) peptide (BioSource International, custom synthesis) in assay buffer (50 mM Tris, pH=7.5, 10 mM MgCl2, 0.01% Brij-35, 0.1% BSA, 1 mM EGTA, 5% Glycerol and 5 mM DTT) for 60 minutes at 25° C. The reactions were stopped by the addition of 10 μL of detection buffer (50 mM Tris, pH 7.8, 0.5 mg/mL BSA, 150 mM NaCl), supplemented with EDTA, LANCE Eu-W1024 anti-phosphotyrosine (PY20), (PerkinElmer, Catalog #AD0067) and Streptavidin SureLight APC (PerkinElmer Catalog #CR130-100), for a final concentration of 15 mM, 1.5 nM and 75 nM, respectively. HTRF signals were read after 30 minutes incubation at room temperature on a PHERAstar FS plate reader (BMG LABTECH). Data was analyzed with IDBS XLfit and GraphPad Prism 5.0 software using a four parameter dose response curve to determine IC50 for each compound.

[2] = target: T2, pseudo-kinase domain (JH2, amino-acids 536-812) of human Wild Type JAK2 (Homo sapiens, UniProt O60674, F794H/W659A/W777A); experiment: JAK2 LanthaScreen JH2-WT Binding Assay; conditions: 1 hour at 25° C.
T2 construct: pseudo-kinase domain (JH2, amino-acids 536-812 with 3 surface mutations W659A, W777A, F794H); purchased BPS Bioscience 79463; host or cells: baculovirus expression system
T2 sequence (O60674 536-812 W659A/W777A/F794H): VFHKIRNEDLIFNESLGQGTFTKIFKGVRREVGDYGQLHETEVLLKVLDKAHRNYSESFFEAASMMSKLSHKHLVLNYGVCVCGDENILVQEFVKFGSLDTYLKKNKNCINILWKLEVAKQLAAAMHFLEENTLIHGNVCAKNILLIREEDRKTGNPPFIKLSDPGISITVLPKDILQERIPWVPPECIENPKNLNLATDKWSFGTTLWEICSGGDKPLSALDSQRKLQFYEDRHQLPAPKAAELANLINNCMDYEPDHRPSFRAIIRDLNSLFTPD
How it was run: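 TR-FRET tracer displacement: 0.145 nM biotinylated JH2 protein, 50 nM fluorescent tracer, 0.25 nM streptavidin-Tb, compound dilution series; 50 mM Tris pH 7.5, 10 mM MgCl2, 5 mM DTT; 1 h, 25° C. Non-specific binding with 2 mM ATP. IC50 by 4-parameter fit.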

[3] = target: T3, pseudo-kinase domain (JH2, amino-acids 536-812) of human V617F mutant JAK2 (Homo sapiens, UniProt O60674, F794H/V617F/W659A/W777A); experiment: JAK2 LanthaScreen JH2-V617F Binding Assay; conditions: 1 hour at 25° C.
T3 construct: pseudo-kinase domain (JH2, amino-acids 536-812 with 3 surface mutations W659A, W777A, F794H); purchased BPS Bioscience 79498; host or cells: baculovirus expression system
T3 sequence (O60674 536-812 V617F/W659A/W777A/F794H): as the sequence (O60674 536-812 W659A/W777A/F794H) above, with V82F counted along it
How it was run: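 Serially diluted compounds are mixed with 0.26 nM protein, 50 nM fluorescent JAK2-JH2 tracer and 0.25 nM terbium-labelled streptavidin, then incubated 1 h at 25° C. LanthaScreen signal is read, and IC50 is fitted.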

[4] = target: T4, catalytic domain (JH1, amino acids 826-1132) of human JAK2 (Homo sapiens, UniProt O60674); experiment: JAK2 LanthaScreen JH1 Binding Assay; conditions: 2 hours at 25° C.
T4 construct: catalytic domain (JH1, amino acids 826-1132) of human JAK2; purchased Carna Biosciences 08-445-20N; host or cells: baculovirus expression system
T4 sequence (O60674 826-1132): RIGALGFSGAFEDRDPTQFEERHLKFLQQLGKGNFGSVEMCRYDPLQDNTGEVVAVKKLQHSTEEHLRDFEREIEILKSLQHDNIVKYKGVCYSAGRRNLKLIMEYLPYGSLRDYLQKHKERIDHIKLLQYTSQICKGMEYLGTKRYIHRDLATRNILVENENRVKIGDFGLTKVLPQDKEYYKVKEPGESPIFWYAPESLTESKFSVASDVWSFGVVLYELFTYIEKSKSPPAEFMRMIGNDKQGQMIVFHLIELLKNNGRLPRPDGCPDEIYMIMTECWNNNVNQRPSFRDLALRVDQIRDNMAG
How it was run: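 Reaction held 1.5 nM biotinylated FLAG-JAK2 JH1, 50 nM tracer and 0.5 nM streptavidin-Tb in pH 7.5 Tris buffer; 2 mM ATP defined nonspecific binding.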

T1 sequence (O60674 808-1132): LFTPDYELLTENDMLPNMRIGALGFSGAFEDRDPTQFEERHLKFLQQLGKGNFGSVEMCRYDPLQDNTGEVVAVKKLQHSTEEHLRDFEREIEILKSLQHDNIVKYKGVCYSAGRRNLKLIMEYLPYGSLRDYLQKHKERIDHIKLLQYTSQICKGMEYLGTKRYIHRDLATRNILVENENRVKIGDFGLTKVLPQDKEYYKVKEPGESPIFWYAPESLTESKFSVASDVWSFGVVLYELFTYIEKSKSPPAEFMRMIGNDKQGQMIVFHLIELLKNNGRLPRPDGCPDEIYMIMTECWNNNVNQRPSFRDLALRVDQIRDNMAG

Row | Compound | IC50 [1] [nM] | IC50 [2] [nM] | IC50 [3] [nM] | IC50 [4] [nM]
1 | CON1C(=O)C2(CCN(CC3(CC#N)CC3)C2)c2c1cnc1[nH]c(-c3cnn(C)c3)c(-c3ccc4c(cnn4C)c3)c21 (racemic) [Example 72, 2-(1-((6-Methoxy-1-(1-methyl-1H-indazol-5-yl)-2-(1-methyl-1H-pyrazol-4-yl)-7-oxo-6,7-dihydro-3H-spiro[dipyrrolo[2,3-b:3′,2′-d]pyridine-8,3′-pyrrolidin]-1′-yl)methyl)cyclopropyl)acetonitrile, trifluoroacetate salt] | 500 to 1250 | 500 to 1250 | 1250 to 2500 | > 2500
2 | CN1C(=O)C2(CCN(C3(C)CCS(=O)(=O)C3)CC2)c2c1cnc1[nH]c(-c3cnn(C)c3)c(-c3ccc4c(cnn4C)c3)c21 (racemic) [Example 78, 6-Methyl-1′-(3-methyl-1,1-dioxidotetrahydrothiophen-3-yl)-1-(1-methyl-1H-indazol-5-yl)-2-(1-methyl-1H-pyrazol-4-yl)-3,6-dihydro-7H-spiro[dipyrrolo[2,3-b:3′-2′-d]pyridine-8,4′-piperidin]-7-one] | 500 to 1250 | ≤ 100 | ≤ 100 | 500 to 1250
3 | COC(=O)NC1CC(CC#N)(N2CCC3(CC2)C(=O)N(C)c2cnc4[nH]c(-c5cnn(C)c5)c(-c5ccccc5)c4c23)C1 (single isomer, unassigned) [Example 27, Methyl (3-(cyanomethyl)-3-(6-methyl-2-(1-methyl-1H-pyrazol-4-yl)-7-oxo-1-phenyl-6,7-dihydro-3H-spiro[dipyrrolo[2,3-b:3′,2′-d]pyridine-8,4′-piperidin]-1′-yl)cyclobutyl)carbamate] | 100 to 500 | ≤ 100 | ≤ 100 | 100 to 500
4 | CCS(=O)(=O)N1CCC[C@]2(CC1)C(=O)N(C)c1cnc3[nH]c(-c4cnn(C(C)C)c4)c(-c4ccc5c(cnn5C)c4)c3c12 (single isomer, unassigned) [Example 53a] | > 2500 | 100 to 500 | 500 to 1250 | > 2500
5 | CCS(=O)(=O)N1CCC[C@@]2(CC1)C(=O)N(C)c1cnc3[nH]c(-c4cnn(C(C)C)c4)c(-c4ccc5c(cnn5C)c4)c3c12 (single isomer, unassigned) [Example 53b] | 100 to 500 | ≤ 100 | ≤ 100 | 100 to 500
6 | CN1C(=O)[C@]2(CCN(CC3(CC#N)CC3)C2)c2c1cnc1[nH]c(-c3cnn(C)c3)c(-c3ccc4c(cnn4C)c3)c21 (single isomer, unassigned) [Example 65] | > 2500 | ≤ 100 | ≤ 100 | > 2500
7 | CN1C(=O)[C@@]2(CCN(CC3(CC#N)CC3)C2)c2c1cnc1[nH]c(-c3cnn(C)c3)c(-c3ccc4c(cnn4C)c3)c21 (single isomer, unassigned) [Example 66] | 500 to 1250 | ≤ 100 | ≤ 100 | 500 to 1250
8 | CO[C@H]1CC[C@@](CC#N)(N2CCC3(CC2)C(=O)N(C)c2cnc4[nH]c(-c5cnn(C)c5)c(-c5ccc6c(cnn6C)c5)c4c23)CC1 (single isomer, unassigned) [Example 75a, 2-(4-Methoxy-1-(6-methyl-1-(1-methyl-1H-indazol-5-yl)-2-(1-methyl-1H-pyrazol-4-yl)-7-oxo-6,7-dihydro-3H-spiro[dipyrrolo[2,3-b:3′,2′-d]pyridine-8,4′-piperidin]-1′-yl)cyclohexyl)acetonitrile] | 100 to 500 | ≤ 100 | ≤ 100 | 100 to 500
9 | [2H]C([2H])([2H])n1ncc2cc(-c3c(-c4cnn(C)c4)[nH]c4ncc5c(c34)C3(CCN([C@](C)(CC#N)COC)CC3)C(=O)N5C)ccc21 (single isomer, unassigned) [Example 80a] | 1250 to 2500 | ≤ 100 | ≤ 100 | 1250 to 2500
10 | [2H]C([2H])([2H])n1ncc2cc(-c3c(-c4cnn(C)c4)[nH]c4ncc5c(c34)C3(CCN([C@@](C)(CC#N)COC)CC3)C(=O)N5C)ccc21 (single isomer, unassigned) [Example 80b] | 500 to 1250 | ≤ 100 | ≤ 100 | 500 to 1250
11 | [2H]C([2H])([2H])N1C(=O)C2(CCCN(S(=O)(=O)C3(C)CC3)CC2)c2c1cnc1[nH]c(-c3cnn(C(C)C)c3)c(-c3ccc4c(cnn4C)c3)c21 (single isomer, unassigned) [Example 103, 2′-(1-Isopropyl-1H-pyrazol-4-yl)-6′-(methyl-d3)-1′-(1-methyl-1H-indazol-5-yl)-1-((1-methylcyclopropyl)sulfonyl)-3′,6′-dihydro-7′H-spiro[azepane-4,8′-dipyrrolo[2,3-b:3′,2′-d]pyridin]-7′-one, trifluoroacetate salt] | 500 to 1250 | ≤ 100 | ≤ 100 | 100 to 500
12 | CN1C(=O)C2(CCOCC2)c2c1cnc1[nH]c(-c3ccc(CN4CCC(S(C)(=O)=O)CC4)cc3)c(-c3ccccc3)c21 [Example 1, 6-Methyl-2-(4-((4-(methylsulfonyl)piperidin-1-yl)methyl)phenyl)-1-phenyl-2′,3,3′,5′,6,6′-hexahydro-7H-spiro[dipyrrolo[2,3-b:3′,2′-d]pyridine-8,4′-pyran]-7-one] | 1250 to 2500 | ≤ 100 | ≤ 100 | 1250 to 2500
13 | CC(=O)N1CCC(N2CC3(C2)C(=O)N(C)c2cnc4[nH]c(-c5ccc(CN6CCC(S(C)(=O)=O)CC6)cc5)c(-c5ccccc5)c4c23)CC1 [Example 3] | > 2500 | 100 to 500 | 100 to 500 | > 2500
14 | CN1C(=O)C2(CCN(CCC#N)CC2)c2c1cnc1[nH]c(-c3ccc(CN4CCC(S(C)(=O)=O)CC4)cc3)c(-c3ccccc3)c21 [Example 4, 3-(6-Methyl-2-((4(4-(methylsulfonyl)piperidin-1-yl)methyl)phenyl)-7-oxo-1-phenyl-6,7-dihydro-3H-spiro[dipyrrolo[2,3-b:3′,2′-d]pyridine-8,4′-piperidin]-1′-yl)propanenitrile trifluoroacetate salt] | 500 to 1250 | ≤ 100 | ≤ 100 | 500 to 1250
15 | CN1C(=O)C2(CCN(CCC#N)CC2)c2c1cnc1[nH]c(-c3ccc(CN4CCC(S(C)(=O)=O)CC4)cc3)c(-c3ccc4c(cnn4C)c3)c21 [Example 5, 3-(6-Methyl-1-(1-methyl-1H-indazol-5-yl)-2-(4-((4-(methylsulfonyl)piperidin-1-yl)methyl)phenyl)-7-oxo-6,7-dihydro-3H-spiro[dipyrrolo[2,3-b:3′,2′-d]pyridine-8,4′-piperidin]-1′-yl)propanenitrile trifluoroacetate salt] | 500 to 1250 | ≤ 100 | ≤ 100 | 500 to 1250
16 | CN1C(=O)C2(CCN(c3cnn(C4(CC#N)CCOCC4)c3)CC2)c2c1cnc1[nH]c(-c3cnn(C)c3)c(-c3ccccc3)c21 [Example 6, 2-(4-(4-(6-Methyl-2-(1-methyl-1H-pyrazol-4-yl)-7-oxo-1-phenyl-6,7-dihydro-3H-spiro[dipyrrolo[2,3-b:3′,2′-d]pyridine-8,4′-piperidin]-1′-yl)-1H-pyrazol-1-yl)tetrahydro-2H-pyran-4-yl)acetonitrile trifluoroacetate salt] | > 2500 | ≤ 100 | ≤ 100 | > 2500

Reference: US11958861B2, “Spirocyclic lactams as JAK2 V617F inhibitors” (Incyte Corporation, priority 2021, dated 2024)
